ChEMBL document CHEMBL5724806, “Unraveling interindividual differences and functional consequences of gut microbial metabolism of immunosuppressants” (2024)

Tests used:
Assay type in all cases: ADME
[1] = (§1) The drug is tested on the gut metagenome community of A-04 with ENA study accession number: PRJEB31790 for biotransformation under anaerobic condition. The drug concentrations were measured over 7 timepoints collected between 0 and 12 hours of incubation by liquid-chromatography-coupled mass spectrometry (LC–MS); design: dose 5 uM, timepoint 0, 0.75, 1.5, 3, 6, 9, 12 hours; settings: 5 µM
[2] = as §1, with “A-03” for “A-04”, “microaerobic” for “anaerobic”; design: dose 5 uM, timepoint 0, 0.75, 1.5, 3, 6, 9, 12 hours; settings: 5 µM
[3] = The drug is tested on Lactobacillus ruminis strain: ATCC25644 for biotransformation under anaerobic condition. The drug concentrations were measured over 6 timepoints collected between 0 and 12 hours of incubation by liquid-chromatography-coupled mass spectrometry (LC–MS); design: dose 5 uM, timepoint 0, 1.5, 3, 6, 9, 12 hours; settings: ligilactobacillus ruminis, 5 µM
[4] = The drug is tested on Lactobacillus reuteri strain: DSM20016 for biotransformation under anaerobic condition. The drug concentrations were measured over 6 timepoints collected between 0 and 12 hours of incubation by liquid-chromatography-coupled mass spectrometry (LC–MS); design: dose 5 uM, timepoint 0, 1.5, 3, 6, 9, 12 hours; settings: limosilactobacillus reuteri, 5 µM
[5] = as §1, with “P-01” for “A-04”; design: dose 5 uM, timepoint 0, 0.75, 1.5, 3, 6, 9, 12 hours; settings: 5 µM
[6] = The drug is tested on Lactobacillus reuteri strain: DSM20016 for biotransformation under microaerobic condition. The drug concentrations were measured over 6 timepoints collected between 0 and 12 hours of incubation by liquid-chromatography-coupled mass spectrometry (LC–MS); design: dose 5 uM, timepoint 0, 1.5, 3, 6, 9, 12 hours; settings: limosilactobacillus reuteri, 5 µM
[7] = The drug is tested on Gemella morbillorum strain: DSM20572 for biotransformation under microaerobic condition. The drug concentrations were measured over 6 timepoints collected between 0 and 12 hours of incubation by liquid-chromatography-coupled mass spectrometry (LC–MS); design: dose 5 uM, timepoint 0, 1.5, 3, 6, 9, 12 hours; settings: 5 µM
[8] = The drug is tested on Lactobacillus gasseri strain: DSM20243 for biotransformation under anaerobic condition. The drug concentrations were measured over 6 timepoints collected between 0 and 12 hours of incubation by liquid-chromatography-coupled mass spectrometry (LC–MS); design: dose 5 uM, timepoint 0, 1.5, 3, 6, 9, 12 hours; settings: 5 µM
[9] = The drug is tested on Bacteroides vulgatus strain: DSM1447 for biotransformation under anaerobic condition. The drug concentrations were measured over 6 timepoints collected between 0 and 12 hours of incubation by liquid-chromatography-coupled mass spectrometry (LC–MS); design: dose 5 uM, timepoint 0, 1.5, 3, 6, 9, 12 hours; settings: phocaeicola vulgatus, 5 µM
[10] = as §1, with “T-03” for “A-04”, “microaerobic” for “anaerobic”; design: dose 5 uM, timepoint 0, 0.75, 1.5, 3, 6, 9, 12 hours; settings: 5 µM
[11] = as §1, with “P-02” for “A-04”; design: dose 5 uM, timepoint 0, 0.75, 1.5, 3, 6, 9, 12 hours; settings: 5 µM
[12] = as §1, with “T-02” for “A-04”; design: dose 5 uM, timepoint 0, 0.75, 1.5, 3, 6, 9, 12 hours; settings: 5 µM
[13] = The drug is tested on Lactobacillus paracasei strain: ATCC27092 for biotransformation under anaerobic condition. The drug concentrations were measured over 6 timepoints collected between 0 and 12 hours of incubation by liquid-chromatography-coupled mass spectrometry (LC–MS); design: dose 5 uM, timepoint 0, 1.5, 3, 6, 9, 12 hours; settings: lacticaseibacillus paracasei, 5 µM
[14] = The drug is tested on Lactobacillus fermentum strain: DSM20052 for biotransformation under anaerobic condition. The drug concentrations were measured over 6 timepoints collected between 0 and 12 hours of incubation by liquid-chromatography-coupled mass spectrometry (LC–MS); design: dose 5 uM, timepoint 0, 1.5, 3, 6, 9, 12 hours; settings: limosilactobacillus fermentum, 5 µM
[15] = as §1, with “A-01” for “A-04”; design: dose 5 uM, timepoint 0, 0.75, 1.5, 3, 6, 9, 12 hours; settings: 5 µM
[16] = The drug is tested on Akkermansia muciniphila strain: DSM22959 for biotransformation under anaerobic condition. The drug concentrations were measured over 6 timepoints collected between 0 and 12 hours of incubation by liquid-chromatography-coupled mass spectrometry (LC–MS); design: dose 5 uM, timepoint 0, 1.5, 3, 6, 9, 12 hours; settings: 5 µM
[17] = The drug is tested on Alloscardovia omnicolens strain: DSM21503 for biotransformation under anaerobic condition. The drug concentrations were measured over 6 timepoints collected between 0 and 12 hours of incubation by liquid-chromatography-coupled mass spectrometry (LC–MS); design: dose 5 uM, timepoint 0, 1.5, 3, 6, 9, 12 hours; settings: 5 µM
[18] = The drug is tested on Streptococcus anginosus strain: DSM20563 for biotransformation under microaerobic condition. The drug concentrations were measured over 6 timepoints collected between 0 and 12 hours of incubation by liquid-chromatography-coupled mass spectrometry (LC–MS); design: dose 5 uM, timepoint 0, 1.5, 3, 6, 9, 12 hours; settings: 5 µM
[19] = as §1, with “A-01” for “A-04”, “microaerobic” for “anaerobic”; design: dose 5 uM, timepoint 0, 0.75, 1.5, 3, 6, 9, 12 hours; settings: 5 µM
[20] = as §1, with “P-03” for “A-04”; design: dose 5 uM, timepoint 0, 0.75, 1.5, 3, 6, 9, 12 hours; settings: 5 µM
[21] = The drug is tested on Alloscardovia omnicolens strain: DSM21503 for biotransformation under microaerobic condition. The drug concentrations were measured over 6 timepoints collected between 0 and 12 hours of incubation by liquid-chromatography-coupled mass spectrometry (LC–MS); design: dose 5 uM, timepoint 0, 1.5, 3, 6, 9, 12 hours; settings: 5 µM
[22] = The drug is tested on Gemella haemolysans strain: DSM107751 for biotransformation under anaerobic condition. The drug concentrations were measured over 6 timepoints collected between 0 and 12 hours of incubation by liquid-chromatography-coupled mass spectrometry (LC–MS); design: dose 5 uM, timepoint 0, 1.5, 3, 6, 9, 12 hours; settings: 5 µM
[23] = The drug is tested on Escherichia coli strain: DSM27469 for biotransformation under anaerobic condition. The drug concentrations were measured over 6 timepoints collected between 0 and 12 hours of incubation by liquid-chromatography-coupled mass spectrometry (LC–MS); design: dose 5 uM, timepoint 0, 1.5, 3, 6, 9, 12 hours; settings: 5 µM
[24] = The drug is tested on Clostridium ramosum strain: DSM1402 for biotransformation under anaerobic condition. The drug concentrations were measured over 6 timepoints collected between 0 and 12 hours of incubation by liquid-chromatography-coupled mass spectrometry (LC–MS); design: dose 5 uM, timepoint 0, 1.5, 3, 6, 9, 12 hours; settings: thomasclavelia ramosa, 5 µM
[25] = as §1, with “P-04” for “A-04”, “microaerobic” for “anaerobic”; design: dose 5 uM, timepoint 0, 0.75, 1.5, 3, 6, 9, 12 hours; settings: 5 µM
[26] = as §1, with “A-02” for “A-04”, “microaerobic” for “anaerobic”; design: dose 5 uM, timepoint 0, 0.75, 1.5, 3, 6, 9, 12 hours; settings: 5 µM
[27] = The drug is tested on Clostridium scindens strain: DSM5676 for biotransformation under anaerobic condition. The drug concentrations were measured over 6 timepoints collected between 0 and 12 hours of incubation by liquid-chromatography-coupled mass spectrometry (LC–MS); design: dose 5 uM, timepoint 0, 1.5, 3, 6, 9, 12 hours; settings: 5 µM
[28] = as §1, with “A-10” for “A-04”; design: dose 5 uM, timepoint 0, 0.75, 1.5, 3, 6, 9, 12 hours; settings: 5 µM
[29] = The drug is tested on Streptococcus sanguinis strain: DSM20567 for biotransformation under microaerobic condition. The drug concentrations were measured over 6 timepoints collected between 0 and 12 hours of incubation by liquid-chromatography-coupled mass spectrometry (LC–MS); design: dose 5 uM, timepoint 0, 1.5, 3, 6, 9, 12 hours; settings: 5 µM
[30] = The drug is tested on Bacteroides thetaiotaomicron strain: DSM2079 for biotransformation under anaerobic condition. The drug concentrations were measured over 6 timepoints collected between 0 and 12 hours of incubation by liquid-chromatography-coupled mass spectrometry (LC–MS); design: dose 5 uM, timepoint 0, 1.5, 3, 6, 9, 12 hours; settings: 5 µM

Bacterial Biotransformation [1] | Bacterial Biotransformation [2] | Bacterial Biotransformation [3] | Bacterial Biotransformation [4] | Bacterial Biotransformation [5] | Bacterial Biotransformation [6] | Bacterial Biotransformation [7] | Bacterial Biotransformation [8] | Bacterial Biotransformation [9] | Bacterial Biotransformation [10] | Bacterial Biotransformation [11] | Bacterial Biotransformation [12] | Bacterial Biotransformation [13] | Bacterial Biotransformation [14] | Bacterial Biotransformation [15] | Bacterial Biotransformation [16] | Bacterial Biotransformation [17] | Bacterial Biotransformation [18] | Bacterial Biotransformation [19] | Bacterial Biotransformation [20] | Compound | other results
Compound metabolized | Compound metabolized | Compound NOT metabolized | Compound NOT metabolized | Compound metabolized | Compound NOT metabolized | Compound NOT metabolized | Compound NOT metabolized | Compound NOT metabolized | Compound NOT metabolized | Compound metabolized | Compound metabolized | Compound NOT metabolized | Compound NOT metabolized | Compound metabolized | Compound NOT metabolized | Compound NOT metabolized | Compound NOT metabolized | Compound metabolized | Compound metabolized | C[C@H]1C[C@@H]2[C@H]([C@@H](O)C[C@@]3(C)[C@H]2CC[C@]3(O)C(=O)CO)[C@@]2(C)C=CC(=O)C=C12 [METHYLPREDNISOLONE] | Bacterial Biotransformation [21]: Compound NOT metabolized; Bacterial Biotransformation [22]: Compound NOT metabolized; Bacterial Biotransformation [23]: Compound NOT metabolized; Bacterial Biotransformation [24]: Compound NOT metabolized; Bacterial Biotransformation [25]: Compound metabolized; Bacterial Biotransformation [26]: Compound metabolized; Bacterial Biotransformation [27]: Compound metabolized; Bacterial Biotransformation [28]: Compound metabolized; Bacterial Biotransformation [29]: Compound NOT metabolized; Bacterial Biotransformation [30]: Compound NOT metabolized
Compound metabolized | Compound metabolized | Compound metabolized | Compound NOT metabolized | Compound metabolized | Compound NOT metabolized | Compound NOT metabolized | Compound metabolized | Compound NOT metabolized | Compound metabolized | Compound metabolized | Compound metabolized | Compound metabolized | Compound NOT metabolized | Compound metabolized | Compound NOT metabolized | Compound metabolized | Compound metabolized | Compound metabolized | Compound metabolized | COc1c(C)c2c(c(O)c1C/C=C(\C)CCC(=O)OCCN1CCOCC1)C(=O)OC2 [MYCOPHENOLATE MOFETIL] | Bacterial Biotransformation [21]: Compound NOT metabolized; Bacterial Biotransformation [22]: Compound metabolized; Bacterial Biotransformation [23]: Compound NOT metabolized; Bacterial Biotransformation [24]: Compound NOT metabolized; Bacterial Biotransformation [25]: Compound metabolized; Bacterial Biotransformation [26]: Compound metabolized; Bacterial Biotransformation [27]: Compound NOT metabolized; Bacterial Biotransformation [28]: Compound metabolized; Bacterial Biotransformation [29]: Compound metabolized; Bacterial Biotransformation [30]: Compound NOT metabolized
